In patent publication US6846801B1, “Systemic administration of a therapeutic preparation” (AstraZeneca AB, priority 1993, dated 2005):
Blank lines part the entries; values can stand above or below the molecule they belong to.

Experiments:
rats = assay: Rat model: powder inhaled, blood glucose compared with insulin formulations without enhancer; assay type: in vivo; conditions: for improvement in absorption of insulin: in vivo model; as to Effect: key: +: significant decrease in blood glucose level; (+): moderate decrease in blood glucose level; −: no or very small decrease in blood glucose level
Procedure: Each of the compounds listed in Table III was tested for its ability to enhance uptake of insulin, and thus affect blood glucose levels, in a rat model. Various forms of insulin were employed: recombinant or semisynthetic human or bovine. Each formulation was prepared as above, drying and processing the insulin/enhancer or insulin/enhancer/lactose solution to produce an inhalable powder.
The powder was administered to rats by inhalation, and the blood glucose levels of the rats were subsequently monitored. These levels were compared to the corresponding values obtained from rats which had inhaled insulin formulations without enhancer.

[1] = test system: CaCo-2 epithelial cell monolayer; assay: In vitro transport of insulin and markers across CaCo-2 epithelial cell monolayer; assay type: in vitro ADME; conditions: 60 min, 37° C.
Source text: A standard in vitro assay utilizing an epithelial cell line, CaCo-2 (available through the American Type Culture Collection (ATCC), Rockville, Md., USA), has been developed to assess the ability of various enhancer compounds to promote transport of insulin and other markers across an epithelial cell monolayer, as a model for the epithelial cell layer which functions in the lung to separate the alveolus from the pulmonary blood supply. In this assay, the enhancer and insulin or other marker are dissolved in aqueous solution at various proportions and/or concentrations, and applied to the apical side of the cell monolayer. After 60 min incubation at 37° C. and 95% RH (relative humidity), the amount of the marker on the basolateral side of the cells is determined: for example, by use of a radioactively labelled marker. […] This is true even when insulin is added to the enhancer/mannitol mixture (1:3 sodium caprate:insulin, by weight) (FIG. 9). This concentration of sodium caprate (16 mM) was also found to promote absorption of insulin across the cell monolayer. The amount of insulin which passed across the monolayer doubled in the presence of 16 mM sodium caprate, compared to the amount in the absence of any enhancer. […]

[2] = rats, inhaled powder, Enhancer:Insulin:lactose 2:4:94
[3] = rats, inhaled powder, Enhancer:Insulin:lactose 4:4:92
[4] = tested as enhancer in the method of the invention, animal (rat) model
[5] = rats, inhaled powder, Enhancer:Insulin:lactose 25:75:0

Molecule: CCCCCCCCCC(=O)OC[C@H](COP(=O)([O-])OCC[N+](C)(C)C)OC(=O)CCCCCCCCC [Didecanoylphospatidylcholine]
Effect (rats; rats, inhaled powder, Enhancer:Insulin:lactose 4:4:94): −

Molecule: CCCCCCCC(=O)OCC(COP(=O)([O-])OCC[N+](C)(C)C)OC(=O)CCCCCCC (stereo not shown) [Dioctanoylphosphatidylcholine]
Effect (rats; [2]): (+)

performance as enhancer of insulin absorption in the lung (in words) (rats; rat, in vivo): some absorption enhancing properties
Molecule: CCCCCCCCOC1O[C@H](CO)[C@@H](O)[C@H](O)[C@H]1O (stereo partly shown) [Octylglucopyranoside]
Effect (rats; [3]): (+)

Molecule: CCCCCCCCCC(=O)[O-].[K+] [Potassium caprate]
Effect (rats; rats, inhaled powder, Enhancer:Insulin:lactose 27:73:0): +
performance as enhancer of insulin absorption in the lung (in words) (rats; [4]): effective

Molecule: CCCCCCCC/C=C\CCCCCCCC(=O)[O-].[K+] [Potassium oleate]
Effect (rats; [3]): +

Molecule: CCCCCCCCCC(=O)[O-].[Na+] [Sodium caprate]
improvement in absorption of insulin (rats; insulin/sodium caprate 50/50 w/w (50% sodium caprate)): Significant improvement
improvement in absorption of insulin (rats; insulin/sodium caprate 75/25 w/w (25% sodium caprate)): Significant improvement
improvement in absorption of insulin (rats; insulin/sodium caprate 82.5/17.5 w/w (17.5% sodium caprate)): intermediate
improvement in absorption of insulin (rats; insulin/sodium caprate 90/10 w/w (10% sodium caprate)): poor improvement
Effect (rats; [3]): +
Effect (rats; rats, inhaled powder, Enhancer:Insulin:lactose 10:90:0): (+)
Effect (rats; rats, inhaled powder, Enhancer:Insulin:lactose 17.5:82.5:0): (+)
Effect (rats; [5]): +
performance as enhancer of insulin absorption in the lung (in words) (rats; [4]): perform well
amount of insulin which passed across the monolayer, compared to absence of any enhancer ([1]; 16 mM sodium caprate, apical to basolateral): doubled
amount of marker (mannitol) which appears on the basolateral side ([1]; at least up to 16 mM sodium caprate, FIG. 8): dependent upon the concentration of enhancer used

Molecule: CCCCCCCC(=O)[O-].[Na+] [Sodium caprylate]
Effect (rats; [5]): −

Molecule: C[C@H](CCC(=O)NCC(=O)[O-])[C@H]1CC[C@H]2[C@@H]3[C@H](O)C[C@@H]4C[C@H](O)CC[C@]4(C)[C@H]3C[C@H](O)[C@]12C.[Na+] [Sodium glycocholate]
performance as enhancer of insulin absorption in the lung (in words) (rats; rat, in vivo): effectively enhance insulin absorption in the lung
Effect (rats; [3]): +

Molecule: CCCCCCCCCCCC(=O)[O-].[Na+] [Sodium laurate]
Effect (rats; [5]): (+)
performance as enhancer of insulin absorption in the lung (in words) (rats; [4]): perform well

performance as enhancer of insulin absorption in the lung (in words) (rats; [4]): perform well
Molecule: CCCCCCCCCCCCCC(=O)[O-].[Na+] [Sodium myristate]
Effect (rats; rats, inhaled powder, Enhancer:Insulin:lactose 30:70:0): +

Molecule: C[C@H](CCC(=O)NCCS(=O)(=O)O)[C@H]1CC[C@H]2[C@@H]3[C@H](O)C[C@@H]4C[C@H](O)CC[C@]4(C)[C@H]3C[C@H](O)[C@]12C [Sodium taurocholate]
Effect (rats; rat, in vivo): +
performance as enhancer of insulin absorption in the lung (in words) (rats; rat, in vivo): effectively enhance insulin absorption in the lung

Molecule: CC(=O)OC1CC2(C)C(CC(O)C3C4(C)CCC(O)C(C)C4CCC32C)C1=C(CCCC(C)C)C(=O)NCCS(=O)(=O)O (stereo not shown) [Sodium taurodihydrofusidate]
performance as enhancer of insulin absorption in the lung (in words) (rats; rat, in vivo): effectively enhance insulin absorption in the lung
Effect (rats; [2]): +

Molecule: C[C@H](CCC(=O)[O-])[C@H]1CC[C@H]2[C@@H]3[C@@H](O)C[C@@H]4C[C@H](O)CC[C@]4(C)[C@H]3CC[C@]12C.[Na+] [Sodium ursodeoxycholate]
performance as enhancer of insulin absorption in the lung (in words) (rats; rat, in vivo): effectively enhance insulin absorption in the lung
Effect (rats; [3]): +

performance as enhancer of insulin absorption in the lung (in words) (rats; rat, in vivo): absorption enhancing effect
Molecule: Dimethyl-β-cyclodextrin
Effect (rats; rats, inhaled powder, Enhancer:Insulin:lactose 75:25:0): +

Molecule: Lysine caprate
Effect (rats; rats, inhaled powder, Enhancer:Insulin:lactose 35:65:0): +
performance as enhancer of insulin absorption in the lung (in words) (rats; [4]): effective

Molecule: Lysophosphatidylcholine
Effect (rats; [3]): +
performance as enhancer of insulin absorption in the lung (in words) (rats; [4]): effective enhancer
